Where a name gives a salt, the structure may show the parent alone.
Tests used:
[1] = test system: Staphylococcus aureus (ATCC #6538); assay: Zone of inhibition on agar plate inoculated with Staphylococcus aureus; type: cell-based
Method: About 1 grams of each gelled composition was deposited on an agar plate that was previously inoculated with E. coli (ATCC #11229), a Gram-negative bacterium, and the plates were incubated for about 20 to about 28 hours at a temperature of about 35 to about 39° C. Antibacterial activity was evaluated by measuring the diameter of the zone of inhibition (i.e., a clear zone with no bacterial colonies present, measured in millimeters) around the deposited gel.
Similar plates were prepared wherein the inoculant was Staphylococcus aureus (ATCC #6538), a Gram-positive bacterium.
(§1) A commercially available vaginal cream formulation of benzydamine hydrochloride, TANTUM ROSA® cream, available from Angelini Pharmaceuticals, Rome, Italy was also evaluated, for comparison. According to the manufacturer's product literature TANTUM ROSA® cream contains about 0.5% benzydamine hydrochloride in a cream base containing propylene glycol, saturated triglycerides, ceteth 20, hydroxyethyl cellulose, sodium citrate dihydrate, citric acid monohydrate, benzoic acid, and purified water. In addition, a simple aqueous solution containing 0.5% by weight of benzydamine hydrochloride in deionized water was tested as a positive control. All materials were tested in triplicate.

[2] = test system: E. coli (ATCC #11229); assay: Zone of inhibition on agar plate inoculated with E. coli; type: cell-based
Method: as §1, with “Antibacterial activity was evaluated by measuring the diameter of the zone of inhibition (i.e., a clear zone with no bacterial colonies present, measured in millimeters) around the deposited gel. A commercially” for “A commercially”, “available from […] Pharmaceuticals, Rome,” for “available from Angelini Pharmaceuticals, Rome,”

[3] = about 1 gram of composition on inoculated agar plate, about 20 to 28 hours, about 35 to 39° C., triplicate

For CN(C)CCCOc1nn(Cc2ccccc2)c2ccccc12 [B-HCl, Benzydamine hydrochloride], the “Staphylococcus clear zone (diameter of zone of inhibition)” value [1, 3] was 14 mm, the “Antibacterial activity against Gram-positive bacteria (Staphylococcus aureus), in words” value ([1]; inhibition test on agar plate) was “effective” and the “E. coli clear zone (diameter of zone of inhibition)” value [2, 3] was 12 mm. For the same compound, the “Antibacterial activity against Gram-negative bacteria (E. coli), in words” value ([2]; inhibition test on agar plate) was “effective”.
